Assay results reported in US20230233555A1 (AbbVie Inc., priority 2022, published 2023).
“Also recorded” adds a separate entry of the source.

Legend:
[1] = tested on: CYP1A2, CYP2B6, CYP2C8, CYP2C9, CYP2C19, CYP2D6, CYP3A4; experiment: In vitro CYP inhibition; assay type: in vitro ADME; settings: clinically relevant concentrations
[2] = tested on: Sprague-Dawley rats; experiment: Carcinogenicity study in Sprague-Dawley rats; assay type: in vivo, rat; settings: for Exposure multiple at top dose without tumorigenicity: AUC basis
[3] = Model-estimated and predicted upadacitinib Cmax and AUCss in UC patients with co-administration of strong CYP3A4 inhibitors; design: species or system human; settings: for Predicted Median Cmax in UC Patients with Strong CYP3A4 inhibitors based on results from M13-401: model-estimated value multiplied by 1.7; for Predicted AUCss in UC Patients with Strong CYP3A4 inhibitors based on results from M13-401, Median: model-estimated value multiplied by 1.75
Source text: The data from Study M13-401 are provided in Table 38 and Table 39, which show the expected increase in Cmax and AUCss, respectively, in patients with UC across all dose levels with co-administration of CYP3A4 inhibitors.

[4] = Human radiolabeled [14C]-upadacitinib study (metabolism and excretion); assay type: in vivo
[5] = tested on: CYP1A2, 2B6, 2C8, 2C9, 2C18, 2C19, 2J2, FMO1, FMO3, OATP1B1, OATP1B3, OCT1; experiment: In vitro substrate assessment, other enzymes and transporters; assay type: in vitro ADME
[6] = tested on: male and female rats; experiment: Fertility study in rats; assay type: in vivo, rat
[7] = tested on: patients with moderately to severely active rheumatoid arthritis, inadequate response to MTX; experiment: Trial RA-II (NCT02706951); assay type: in vivo, human; settings: RA-II through Week 14; 30 mg monotherapy
Source text: The primary endpoint was the proportion of patients who achieved an ACR20 response at Week 14. Key secondary endpoints included DAS28-CRP ≤3.2, DAS28-CRP <2.6, and change from baseline in HAQ-DI at Week 14.

[8] = tested on: rat bone marrow; experiment: In vivo rat bone marrow micronucleus assay
[9] = molecular target: CYP3A4 (Homo sapiens, UniProt P08684); experiment: In vitro metabolism / substrate assessment, CYP3A4; assay type: in vitro ADME
[10] = clinical; settings: human, in vivo
[11] = Renal impairment pharmacokinetic study (Study M13-551); assay type: in vivo, human
Procedure: Renal clearance indicates some involvement of renal transporters in the excretion. Renal secretion is however not estimated to contribute to more than 25% of the elimination. […] As used herein, reference to “severe renal impairment” means a creatinine clearance of less than 30 mL/min.
This may increase the risk of adverse reactions; therefore, dosage modification in patients with severe renal impairment is recommended.

[12] = Hepatic impairment pharmacokinetic study; assay type: in vivo, human
[13] = Solubility in water; assay type: physicochemical; settings: aqueous buffer, pH range of 2 to 9 at 37° C.
Source text: The strength of upadacitinib is based on anhydrous upadacitinib. […]

[14] = tested on: Tg.rasH2 mice; experiment: Carcinogenicity study in Tg.rasH2 mice; assay type: in vivo, mouse; settings: 26 weeks, oral up to 20 mg/kg/day
[15] = tested on: pregnant rats; experiment: Oral embryo-fetal development studies in rats

Chain of CYP3A4 (P08684 whole entry): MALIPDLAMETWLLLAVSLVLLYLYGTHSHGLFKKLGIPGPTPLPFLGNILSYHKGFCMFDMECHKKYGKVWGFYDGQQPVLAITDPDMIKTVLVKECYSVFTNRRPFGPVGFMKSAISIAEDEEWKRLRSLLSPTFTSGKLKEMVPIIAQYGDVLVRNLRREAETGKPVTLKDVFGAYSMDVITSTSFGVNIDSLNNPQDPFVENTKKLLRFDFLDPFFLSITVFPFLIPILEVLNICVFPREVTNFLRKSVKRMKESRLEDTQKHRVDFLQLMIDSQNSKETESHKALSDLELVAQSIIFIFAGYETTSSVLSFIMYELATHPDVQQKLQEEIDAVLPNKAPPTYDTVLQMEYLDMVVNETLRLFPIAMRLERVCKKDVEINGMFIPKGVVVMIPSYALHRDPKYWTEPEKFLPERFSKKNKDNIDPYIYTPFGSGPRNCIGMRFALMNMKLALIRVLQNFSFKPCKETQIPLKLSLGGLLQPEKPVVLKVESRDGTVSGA

CC[C@@H]1CN(C(=O)NCC(F)(F)F)C[C@@H]1c1cnc2cnc3[nH]ccc3n12 [upadacitinib, (3S,4R)-3-Ethyl-4-(3H-imidazo[1,2-a]pyrrolo[2,3-e]pyrazin-8-yl)-N-(2,2,2-trifluoroethyl)pyrrolidine-1-carboxamide hydrate (2:1)]
Inhibition (or induction) of CYP1A2, 2B6, 2C8, 2C9, 2C19, 2D6, 3A4 [1]: does not inhibit or induce; also recorded: no in vivo relevant inhibition | Exposure multiple at top dose without tumorigenicity ([2]; female rats, 20 mg/kg/day): ~6.0 times the MRHD of 30 mg | Exposure multiple at top dose without tumorigenicity ([2]; male rats, 15 mg/kg/day): approximately 2.4 times the MRHD of 30 mg | Tumorigenicity ([2]; up to 101 weeks, oral up to 15 (male) or 20 (female) mg/kg/day): No evidence of tumorigenicity | Predicted Median Cmax in UC Patients with Strong CYP3A4 inhibitors based on results from M13-401 ([3]; 7.5 mg treatment group): 34.3 ng/mL | Predicted AUCss in UC Patients with Strong CYP3A4 inhibitors based on results from M13-401, Median ([3]; 7.5 mg treatment group): 282 ng·h/mL | Predicted Median Cmax in UC Patients with Strong CYP3A4 inhibitors based on results from M13-401 ([3]; 15 mg treatment group): 70.2 ng/mL | Predicted AUCss in UC Patients with Strong CYP3A4 inhibitors based on results from M13-401, Median ([3]; 15 mg treatment group): 599 ng·h/mL | Predicted Median Cmax in UC Patients with Strong CYP3A4 inhibitors based on results from M13-401 ([3]; 30 mg treatment group): 133 ng/mL | Predicted AUCss in UC Patients with Strong CYP3A4 inhibitors based on results from M13-401, Median ([3]; 30 mg treatment group): 1143 ng·h/mL | Predicted Median Cmax in UC Patients with Strong CYP3A4 inhibitors based on results from M13-401 ([3]; 45 mg treatment group): 206 ng/mL | Predicted AUCss in UC Patients with Strong CYP3A4 inhibitors based on results from M13-401, Median ([3]; 45 mg treatment group): 1740 ng·h/mL | Unchanged upadacitinib share of total radioactivity in plasma ([4]; human radiolabeled study): 79% | Active metabolites ([4]; in vivo): No active metabolites | Substrate of CYP1A2, 2B6, 2C8, 2C9, 2C18, 2C19, 2J2, FMO1, FMO3, OATP1B1, OATP1B3 or OCT1 [5]: not a substrate | Exposure multiple with viable embryos unaffected ([6]; 5 mg/kg/day, AUC basis): approximately 1.0 times the MRHD of 30 mg | Exposure multiple with adverse effect on maintenance of pregnancy ([6]; 25 mg/kg/day, AUC basis): approximately 13 times the MRHD of 30 mg | Exposure multiple with adverse effect on maintenance of pregnancy ([6]; 75 mg/kg/day, AUC basis): ~48 times the MRHD of 30 mg | Exposure multiple without effect on fertility ([6]; female rats, 75 mg/kg/day, AUC basis): ~48 times the MRHD of 30 mg | Number of viable embryos ([6]; females 5 mg/kg/day mated to males at the same dose): unaffected | Exposure multiple without effect on fertility ([6]; male rats, 50 mg/kg/day, AUC basis): approximately 24 times the MRHD of 30 mg | Maintenance of pregnancy (post-implantation losses, viable embryos per litter) ([6]; oral 25 and 75 mg/kg/day): adversely affected | Fertility ([6]; oral up to 50 mg/kg/day males, 75 mg/kg/day females): no effect on fertility | Venous thrombosis, number of patients [7]: 0 patients | Genotoxicity, bone marrow micronucleus [8]: tested negatively | Substrate of / metabolised by CYP3A4 [9]: substrate; also recorded: mediated by mainly CYP3A4; also recorded: metabolized in vitro by CYP3A4 | half-life [10]: 8 to 14 h | Tmax ([10]; po): 2 to 4 h | Cmax, impaired vs normal renal function ([11]; in vivo): similar | Contribution of the renal route to elimination ([11]; in vivo): approximately 25% | AUCinf higher vs normal renal function ([11]; mild renal impairment): 18% | AUCinf higher vs normal renal function ([11]; moderate renal impairment): 33% | AUCinf higher vs normal renal function ([11]; severe renal impairment): 44% | Cmax higher vs normal renal function ([11]; severe renal impairment, Study M13-551): 14% | Cmax vs normal liver function ([12]; mild hepatic impairment): unchanged | AUC (AUCinf) higher vs normal hepatic function ([12]; mild hepatic impairment (Child-Pugh A)): 28% | Cmax higher vs normal liver function ([12]; moderate hepatic impairment): 43% | AUC (AUCinf) higher vs normal hepatic function ([12]; moderate hepatic impairment (Child-Pugh B)): 24% | solubility [13]: ≤ 38 mg/mL | Tumorigenicity [14]: No evidence of tumorigenicity | Exposure multiple with additional skeletal malformations and decreased fetal body weights, no maternal toxicity ([15]; AUC basis, 75 mg/kg/day): approximately 48 times the MRHD of 30 mg | Exposure multiple with teratogenicity (misshapen humerus, bent scapula) ([15]; GD 6 to 17, AUC basis, 5 mg/kg/day and higher): ≥ 1.0 times the MRHD of 30 mg | Exposure multiple with developmental toxicity (skeletal malformations, decreased fetal body weights) ([15]; oral): ≥ 2 times the 15 mg dose | Exposure multiple with no developmental toxicity ([15]; oral, organogenesis): approximately 0.3 times the 15 mg dose
